Reference: EPA's CvTdb concentration-time database
One block for each compound: values may come before it.

Columns and labels:
Rat [1] = assay: concentration in brain after dosing; details: 24 h; dosed: Perfluorodecanoic acid; 10 mg/kg; oral; Female; Harlan Sprague Dawley
Rat [2] = assay: concentration in brain after dosing; details: 1848 h; dosed: Perfluorodecanoic acid; 10 mg/kg; oral; Female; Harlan Sprague Dawley
Rat [3] = assay: concentration in kidney after dosing; details: 3360 h; dosed: Perfluorodecanoic acid; 10 mg/kg; oral; Male; Harlan Sprague Dawley
Rat [4] = assay: concentration in kidney after dosing; details: 864 h; dosed: Perfluorodecanoic acid; 10 mg/kg; oral; Male; Harlan Sprague Dawley
Rat [5] = assay: concentration in kidney after dosing; details: 1848 h; dosed: Perfluorodecanoic acid; 10 mg/kg; oral; Male; Harlan Sprague Dawley
Rat [6] = assay: concentration in liver after dosing; details: 864 h; dosed: Perfluorodecanoic acid; 10 mg/kg; oral; Male; Harlan Sprague Dawley
Rat [7] = assay: concentration in plasma after dosing; details: dosed: Perfluorodecanoic acid, 2 mg/kg, iv, Male, F344
Rat [8] = assay: concentration in plasma after dosing; details: dosed: Perfluorodecanoic acid, 2 mg/kg, oral, Male, Harlan Sprague Dawley
Rat [9] = assay: concentration in plasma after dosing; details: dosed: Perfluorodecanoic acid, 2 mg/kg, iv, Male, F344; remark: listed apart in the source
Rat [10] = assay: concentration in brain after dosing; details: 864 h; dosed: Perfluorodecanoic acid; 10 mg/kg; oral; Female; Harlan Sprague Dawley
Rat [11] = assay: concentration in plasma after dosing; details: 4 h; dosed: Di-n-butyl phthalate; 20 mg/kg; iv; Male; Sprague-Dawley
Rat [12] = assay: concentration in plasma after dosing; details: 15 h; dosed: Di-n-butyl phthalate; 50 mg/kg; oral; Male; Sprague-Dawley
Rat [13] = assay: concentration in plasma after dosing; details: 3 h; dosed: Di-n-butyl phthalate; 100 mg/kg; oral; Male; Sprague-Dawley
Rat [14] = assay: concentration in plasma after dosing; details: 1 h; dosed: Di-n-butyl phthalate; 50 mg/kg; oral; Male; Sprague-Dawley
Rat [15] = assay: concentration in plasma after dosing; details: 2 h; dosed: Di-n-butyl phthalate; 20 mg/kg; iv; Male; Sprague-Dawley
Rat [16] = assay: concentration in plasma after dosing; details: 0.5 h; dosed: Di-n-butyl phthalate; 100 mg/kg; oral; Male; Sprague-Dawley
Rat [17] = assay: concentration in plasma after dosing; details: 40 min; dosed: Di-n-butyl phthalate; 50 mg/kg; oral; Male; Sprague-Dawley
Rat [18] = assay: concentration in plasma after dosing; details: 4 h; dosed: Di-n-butyl phthalate; 20 mg/kg; iv; Male; Sprague-Dawley; remark: listed apart in the source
Rat [19] = assay: concentration in plasma after dosing; details: 40 min; dosed: dichloroacetic acid; 40 mg/kg; oral; Female; Harlan Sprague Dawley
Rat [20] = assay: concentration in plasma after dosing; details: dosed: dichloroacetic acid, 100 mg/kg, oral, Male, F344
Rat [21] = assay: concentration in plasma after dosing; details: dosed: Wyeth-14643, 1.0 mg/kg, oral, Male, Sprague-Dawley
Rat [22] = assay: concentration in plasma after dosing; details: 20 min; dosed: Bis 2-Chloroethoxy Methane; 20 mg/kg; iv; Female; F344
Rat [23] = assay: concentration in thymus after dosing; details: 20 min; dosed: Bis 2-Chloroethoxy Methane; 20 mg/kg; iv; Female; F344
Rat [24] = assay: concentration in plasma after dosing; details: 40 min; dosed: Bis 2-Chloroethoxy Methane; 20 mg/kg; iv; Female; F344
Rat [25] = assay: concentration in heart after dosing; details: 5 h; dosed: Bis 2-Chloroethoxy Methane; 20 mg/kg; iv; Female; F344
Rat [26] = assay: concentration in thymus after dosing; details: 40 min; dosed: Bis 2-Chloroethoxy Methane; 20 mg/kg; iv; Male; F344
Rat [27] = assay: concentration in brain after dosing; details: 3 h; dosed: Fluorotelomer alcohol 8+2; 24 mg/kg; oral; Male; Harlan Sprague Dawley
Rat [28] = assay: concentration in liver after dosing; details: 6 h; dosed: Fluorotelomer alcohol 8+2; 80 mg/kg; oral; Female; Harlan Sprague Dawley
Rat [29] = assay: concentration in plasma after dosing; details: dosed: Fluorotelomer alcohol 8+2, 12 mg/kg, oral, Male, Harlan Sprague Dawley
Rat [30] = assay: concentration in liver after dosing; details: 12 h; dosed: Fluorotelomer alcohol 8+2; 24 mg/kg; oral; Male; Harlan Sprague Dawley
Rat [31] = assay: concentration in liver after dosing; details: 3 h; dosed: Fluorotelomer alcohol 8+2; 80 mg/kg; oral; Female; Harlan Sprague Dawley
Rat [32] = assay: concentration in liver after dosing; details: 6 h; dosed: Fluorotelomer alcohol 8+2; 24 mg/kg; oral; Male; Harlan Sprague Dawley
Rat [33] = assay: concentration in plasma after dosing; details: 20 min; dosed: Thiodiglycolic Acid; 20 mg/kg; iv; Female; F344
Rat [34] = assay: concentration in liver after dosing; details: 10 min; dosed: Thiodiglycolic Acid; 20 mg/kg; iv; Male; F344
Rat [35] = assay: concentration in plasma after dosing; details: 40 min; dosed: Thiodiglycolic Acid; 20 mg/kg; iv; Female; Harlan Sprague Dawley
Rat [36] = assay: concentration in thymus after dosing; details: 3 h; dosed: Thiodiglycolic Acid; 20 mg/kg; iv; Female; Harlan Sprague Dawley
Rat [37] = assay: concentration in liver after dosing; details: 40 min; dosed: Thiodiglycolic Acid; 20 mg/kg; iv; Female; Harlan Sprague Dawley
Rat [38] = assay: concentration in plasma after dosing; details: 3 h; dosed: Primidone; 30 mg/kg; oral; Female; F344
Rat [39] = assay: concentration in plasma after dosing; details: 12 h; dosed: Primidone; 80 mg/kg; oral; Female; Harlan Sprague-Dawley

Compound: O=C(O)C(F)(F)C(F)(F)C(F)(F)C(F)(F)C(F)(F)C(F)(F)C(F)(F)C(F)(F)C(F)(F)F [Perfluorodecanoic acid]
concentration in brain (Rat [1]): 1820 ng/g
concentration in brain (Rat [2]): 680 ng/g
concentration in kidney (Rat [3]): 1240 ng/g
concentration in kidney (Rat [4]): 10600 ng/g
concentration in kidney (Rat [5]): 4700 ng/g
concentration in liver (Rat [6]): 47900 ng/g
concentration in plasma (Rat [7]; 6 h): 5600 ng/mL
concentration in plasma (Rat [7]; 864 h): 2690 ng/mL
concentration in plasma (Rat [8]; 12 h): 8900 ng/mL
concentration in plasma (Rat [8]; 1200 h): 1160 ng/mL
concentration in plasma (Rat [9]; 12 h): 6270 ng/mL
concentration in plasma (Rat [9]; 1200 h): 874 ng/mL
concentration in brain (Rat [10]): 1010 ng/g

Compound: CCCCOC(=O)c1ccccc1C(=O)O [Mono-n-butyl phthalate]
concentration in plasma (Rat [11]): 726 ng/mL
concentration in plasma (Rat [12]): 530 ng/mL
concentration in plasma (Rat [13]): 1190 ng/mL
concentration in plasma (Rat [14]): 3070 ng/mL
concentration in plasma (Rat [15]): 1670 ng/mL
concentration in plasma (Rat [16]): 29700 ng/mL
concentration in plasma (Rat [17]): 14200 ng/mL
concentration in plasma (Rat [18]): 678 ng/mL

Compound: O=C(O)C(Cl)Cl [dichloroacetic acid]
concentration in plasma (Rat [19]): 10700 ng/mL
concentration in plasma (Rat [20]; 2 min): 2560 ng/mL
concentration in plasma (Rat [20]; 1.25 h): 43500 ng/mL

concentration in plasma (Rat [21]; 0.25 h): 341 ng/mL
concentration in plasma (Rat [21]; 4 h): 214 ng/mL
Compound: Cc1cccc(Nc2cc(Cl)nc(SCC(=O)O)n2)c1C

Compound: ClCCOCOCCCl [Bis 2-Chloroethoxy Methane]
concentration in plasma (Rat [22]): 3810 ng/mL
concentration in thymus (Rat [23]): 26100 ng/g
concentration in plasma (Rat [24]): 1720 ng/mL
concentration in heart (Rat [25]): 27.4 ng/g
concentration in thymus (Rat [26]): 4530 ng/g

concentration in brain (Rat [27]): 1490 ng/g
concentration in liver (Rat [28]): 2020 ng/g
concentration in plasma (Rat [29]; 0.25 h): 183 ng/mL
concentration in plasma (Rat [29]; 6 h): 27.9 ng/mL
concentration in liver (Rat [30]): 719 ng/g
concentration in liver (Rat [31]): 13000 ng/g
concentration in liver (Rat [32]): 1250 ng/g
Compound: OCCC(F)(F)C(F)(F)C(F)(F)C(F)(F)C(F)(F)C(F)(F)C(F)(F)C(F)(F)F [Fluorotelomer alcohol 8+2]

Compound: O=C(O)CSCC(=O)O [Thiodiglycolic Acid]
concentration in plasma (Rat [33]): 9230 ng/mL
concentration in liver (Rat [34]): 155000 ng/g
concentration in plasma (Rat [35]): 4120 ng/mL
concentration in thymus (Rat [36]): 1030 ng/g
concentration in liver (Rat [37]): 92500 ng/g

Compound: CCC1(c2ccccc2)C(=O)NC(=O)NC1=O [Phenobarbital]
concentration in plasma (Rat [38]): 640 ng/mL
concentration in plasma (Rat [39]): 5830 ng/mL
